Consider 7 compounds from patent US5424312A, “Aminoalkyl-substituted 2-amino-1,3,4-thiadiazoles, the preparation and use thereof” (BASF Aktiengesellschaft, priority 1991, dated 1995).

Molecules are shown by their SMILES. Structures can show the parent of a compound that is named as a salt.

T1 sequence (P61169 whole entry): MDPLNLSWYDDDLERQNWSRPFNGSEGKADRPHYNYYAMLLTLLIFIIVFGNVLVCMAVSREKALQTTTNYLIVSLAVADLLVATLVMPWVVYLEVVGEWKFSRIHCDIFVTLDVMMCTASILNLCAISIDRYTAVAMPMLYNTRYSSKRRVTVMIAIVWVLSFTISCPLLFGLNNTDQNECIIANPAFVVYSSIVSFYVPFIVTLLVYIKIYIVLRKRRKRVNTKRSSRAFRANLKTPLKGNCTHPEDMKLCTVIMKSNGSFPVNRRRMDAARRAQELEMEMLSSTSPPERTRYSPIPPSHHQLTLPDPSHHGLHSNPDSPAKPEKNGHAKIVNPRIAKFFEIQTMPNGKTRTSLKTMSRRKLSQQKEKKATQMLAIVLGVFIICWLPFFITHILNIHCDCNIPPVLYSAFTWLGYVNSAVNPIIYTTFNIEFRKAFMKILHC

The first experiment has as its target T1, dopamine D2 receptor (Rattus norvegicus, UniProt P61169).
T1 construct: Striata from rats (Sprague Dawley, Charles River) were homogenized immediately after removal; from tissue; host or cells: rat striatum (Sprague Dawley, Charles River), membranes
As to the kind of experiment: Receptor binding assay with 3H-ADTN on rat striatal membranes: affinity for the dopamine D2 receptor.
Settings: not given
On the set-up: species or system rat (Sprague Dawley). Here is the method:
The effects of the novel compounds can be shown in the receptor binding assay as follows:
Striata from rats (Sprague Dawley, Charles River) were homogenized immediately after removal in 0.32M sucrose solution (0° C.). The homogenate was filtered through gauze, the filtrate was centrifuged at 1000×g (5 min at 4° C.) and the resulting supernatant was centrifuged at 40000×g (4C 10 min) The residue (membranes) was taken up in incubation buffer (50 mM tris-HCl, 1 mM MgCl2 and 0.1% ascorbic acid, pH 7.4) and incubated at 37° C. for 20 min. The residue was subsequently washed 2× with incubation buffer by resuspension and recentrifugation. The membranes were frozen in portions in liquid nitrogen.
The assay mixtures (1 ml) were composed of membranes (380 μg of protein), 1 nM ^3 H-ADTN (NEN, Dreieich Germany, specific radioactivity 1.4 TBq/mmol) and 0.1 μM SCH 23390 (total binding) or a) with the addition of 50 nM spiperone (non-specific binding) or b) with test substance. The mixtures were prepared in triplicate.
After the incubation (40 min at 25° C.) the mixtures were filtered through glass fiber filters (Whatman GF/B) and briefly washed with ice-cold washing buffer (tris-HCl, pH 7.4). The radioactivity retained on the filters was determined by liquid scintillation counting. The non-specific binding comprised about 40-50% of the total binding.
The evaluation of the competition plots and the determination of the dissociation constant took place by iterative non-linear regression analysis based on the "ligand" program (Muson and Rodbard: Anal. Biochem. 107 (1980) 220).
Affinity of the test substances for the dopamine D2 receptor
`Nc1nnc(CCCCCN2CC=C(c3ccccc3)CC2)s1` [Example 19, fumarate]: the inhibition constant (Ki) came out at 10 nM. Take `Nc1nnc(CCCCN2CC=C(c3ccccc3)CC2)s1` [Example 18, 2-Amino-5-[4-(1,2,3,6-tetrahydro-4-phenylpyridinyl)-butyl]-1,3,4-thiadiazole]: the Ki was determined as 5 nM.

The same experiment, now with this note: rat striatum membranes; 1 nM 3H-ADTN; 0.1 μM SCH 23390; non-specific binding with 50 nM spiperone; 40 min at 25° C.; read-out: Affinity of the test substances for the dopamine D2 receptor, Ki.
In the case of `Nc1nnc(CCCN2CC=C(c3ccccc3)CC2)s1` [Example 10, 2-Amino-5-[3-(1,2,3,6-tetrahydro-4-phenylpyridyl)propyl]-1,3,4-thiadiazolehydrochloride], the Ki came to 32 nM. The same measure, in the same setting: with `Nc1nnc(CCCCN2CCN(c3ccccn3)CC2)s1` [Example 21, 2-Amino-5-[4-(4-pyridin-2-ylpiperazinyl)butyl]-1,3,4-thiadiazole] the figure was 44 nM. For the compound `Nc1nnc(CCN2CC=C(c3ccc(Cl)cc3)CC2)s1` [Example 7, 2-Amino-5-[2-(4-(4-chlorophenyl)-l,2,3,6-tetrahydropyridyl)ethyl]-1,3,4-thiadiazole dihydrochloride], the Ki was 30 nM. `Nc1nnc(CCN2CCC(c3ccccc3)CC2)s1` [Example 24, 2-Amino-5-[2-(4-phenylpiperidinyl)ethyl]-1,3,4-thiadiazole]: the Ki stood at 37 nM. Still for that read-out and setting: with `Nc1nnc(CCN2CC=C(c3ccccc3)CC2)s1` [Example 4, 2-Amino-5-[2-(1,2,3,6-tetrahydro-4-phenylpyridyl)-ethyl]-1,3,4-thiadiazolehydrochloride] the figure was 30 nM.

Usually Ki stands for a measure of affinity in units of concentration, obtained from inhibition or displacement.
